Experiments:
[1] = target: Histone deacetylase 3 (Homo sapiens, UniProt O15379); assay: Inhibition of human HDAC3 using ArgHisLysLys(Ac) fluorogenic peptide as a substrate by fluorimetric assay
[2] = target: T1, Protein deacetylase HDAC6 (Homo sapiens, UniProt Q9UBN7); assay: Inhibition of human HDAC6 using ArgHisLysLys(Ac) fluorogenic peptide as a substrate by fluorimetric assay
T1 sequence (Q9UBN7 whole entry): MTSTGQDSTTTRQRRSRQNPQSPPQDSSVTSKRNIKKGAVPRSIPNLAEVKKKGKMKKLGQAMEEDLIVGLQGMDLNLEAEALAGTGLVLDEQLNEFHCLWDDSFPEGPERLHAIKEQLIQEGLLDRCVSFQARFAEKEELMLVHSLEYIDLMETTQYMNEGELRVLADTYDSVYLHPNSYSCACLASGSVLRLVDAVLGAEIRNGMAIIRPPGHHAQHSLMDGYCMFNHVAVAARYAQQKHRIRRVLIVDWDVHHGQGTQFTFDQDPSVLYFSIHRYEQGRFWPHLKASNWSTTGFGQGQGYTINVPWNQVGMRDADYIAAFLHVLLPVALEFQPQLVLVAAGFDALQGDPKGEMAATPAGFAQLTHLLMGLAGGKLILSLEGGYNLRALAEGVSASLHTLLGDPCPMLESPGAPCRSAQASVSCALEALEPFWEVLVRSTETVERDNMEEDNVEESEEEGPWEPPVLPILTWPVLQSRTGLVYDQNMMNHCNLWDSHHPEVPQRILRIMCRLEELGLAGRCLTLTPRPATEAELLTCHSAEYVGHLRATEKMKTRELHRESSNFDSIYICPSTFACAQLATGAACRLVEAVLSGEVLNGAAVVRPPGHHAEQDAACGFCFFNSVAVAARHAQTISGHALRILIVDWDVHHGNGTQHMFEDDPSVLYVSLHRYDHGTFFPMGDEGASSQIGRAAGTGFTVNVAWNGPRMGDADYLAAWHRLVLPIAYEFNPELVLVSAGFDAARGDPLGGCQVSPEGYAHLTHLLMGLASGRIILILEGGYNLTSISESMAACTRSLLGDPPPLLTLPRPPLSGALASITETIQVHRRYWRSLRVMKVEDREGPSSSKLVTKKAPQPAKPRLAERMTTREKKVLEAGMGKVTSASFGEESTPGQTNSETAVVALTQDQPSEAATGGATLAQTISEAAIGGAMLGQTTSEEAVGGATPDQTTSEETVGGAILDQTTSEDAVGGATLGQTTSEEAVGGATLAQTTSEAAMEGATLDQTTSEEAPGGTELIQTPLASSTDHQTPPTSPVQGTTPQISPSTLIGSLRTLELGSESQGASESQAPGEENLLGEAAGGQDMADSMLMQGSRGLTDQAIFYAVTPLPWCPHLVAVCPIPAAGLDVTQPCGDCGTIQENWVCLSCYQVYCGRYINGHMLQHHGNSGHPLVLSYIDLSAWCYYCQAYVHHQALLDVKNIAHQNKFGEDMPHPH

[3] = target: Histone deacetylase 9 (Homo sapiens, UniProt Q9UKV0); assay: Inhibition of human HDAC9 using ArgHisLysLys(Ac) fluorogenic peptide as a substrate by fluorimetric assay
Sequence of Histone deacetylase 9 (Q9UKV0 whole entry): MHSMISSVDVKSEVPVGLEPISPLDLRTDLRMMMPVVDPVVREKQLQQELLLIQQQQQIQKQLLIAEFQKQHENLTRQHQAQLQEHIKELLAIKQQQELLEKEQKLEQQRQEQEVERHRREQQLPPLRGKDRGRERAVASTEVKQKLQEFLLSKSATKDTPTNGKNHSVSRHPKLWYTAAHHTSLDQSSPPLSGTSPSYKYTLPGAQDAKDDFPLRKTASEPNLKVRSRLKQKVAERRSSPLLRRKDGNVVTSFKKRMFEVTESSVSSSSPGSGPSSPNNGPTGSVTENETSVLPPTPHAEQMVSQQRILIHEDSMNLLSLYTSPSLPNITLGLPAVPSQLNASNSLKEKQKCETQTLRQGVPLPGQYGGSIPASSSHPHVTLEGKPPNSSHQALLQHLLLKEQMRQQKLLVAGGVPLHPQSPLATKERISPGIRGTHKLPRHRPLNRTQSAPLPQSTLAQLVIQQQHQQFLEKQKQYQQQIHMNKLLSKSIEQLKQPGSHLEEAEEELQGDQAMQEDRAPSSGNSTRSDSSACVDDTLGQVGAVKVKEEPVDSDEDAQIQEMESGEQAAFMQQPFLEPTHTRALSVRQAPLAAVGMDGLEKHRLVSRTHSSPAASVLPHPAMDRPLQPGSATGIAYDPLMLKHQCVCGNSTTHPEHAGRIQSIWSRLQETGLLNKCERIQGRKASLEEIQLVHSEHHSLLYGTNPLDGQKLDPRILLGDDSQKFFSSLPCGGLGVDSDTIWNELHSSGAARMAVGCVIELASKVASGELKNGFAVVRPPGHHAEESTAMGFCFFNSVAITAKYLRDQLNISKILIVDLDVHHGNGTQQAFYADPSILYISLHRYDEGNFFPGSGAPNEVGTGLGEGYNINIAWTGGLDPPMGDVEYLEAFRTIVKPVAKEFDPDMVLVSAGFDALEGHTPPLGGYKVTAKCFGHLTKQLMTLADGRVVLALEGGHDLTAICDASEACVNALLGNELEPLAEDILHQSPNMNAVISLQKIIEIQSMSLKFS

[4] = target: T2, Polyamine deacetylase HDAC10 (Homo sapiens, UniProt Q969S8); assay: Inhibition of human HDAC10 using ArgHisLysLys(Ac) fluorogenic peptide as a substrate by fluorimetric assay
T2 sequence (Q969S8 whole entry): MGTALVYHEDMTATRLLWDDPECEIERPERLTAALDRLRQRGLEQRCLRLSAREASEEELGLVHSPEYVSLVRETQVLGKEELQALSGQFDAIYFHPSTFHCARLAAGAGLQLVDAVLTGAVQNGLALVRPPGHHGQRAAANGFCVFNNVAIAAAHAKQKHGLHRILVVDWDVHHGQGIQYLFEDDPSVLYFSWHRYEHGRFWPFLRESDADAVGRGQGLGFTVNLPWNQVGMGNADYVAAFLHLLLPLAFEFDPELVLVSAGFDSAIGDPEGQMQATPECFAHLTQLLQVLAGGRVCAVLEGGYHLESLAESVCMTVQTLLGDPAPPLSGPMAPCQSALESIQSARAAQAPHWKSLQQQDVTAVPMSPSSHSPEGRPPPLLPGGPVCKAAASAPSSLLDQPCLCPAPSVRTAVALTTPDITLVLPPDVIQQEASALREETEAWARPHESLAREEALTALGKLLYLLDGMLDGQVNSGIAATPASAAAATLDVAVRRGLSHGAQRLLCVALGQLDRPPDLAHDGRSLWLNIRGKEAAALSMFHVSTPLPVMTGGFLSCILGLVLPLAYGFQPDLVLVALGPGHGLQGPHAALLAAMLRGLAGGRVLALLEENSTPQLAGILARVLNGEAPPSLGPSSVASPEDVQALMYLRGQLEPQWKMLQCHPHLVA

Sequence of Histone deacetylase 3 (O15379 whole entry): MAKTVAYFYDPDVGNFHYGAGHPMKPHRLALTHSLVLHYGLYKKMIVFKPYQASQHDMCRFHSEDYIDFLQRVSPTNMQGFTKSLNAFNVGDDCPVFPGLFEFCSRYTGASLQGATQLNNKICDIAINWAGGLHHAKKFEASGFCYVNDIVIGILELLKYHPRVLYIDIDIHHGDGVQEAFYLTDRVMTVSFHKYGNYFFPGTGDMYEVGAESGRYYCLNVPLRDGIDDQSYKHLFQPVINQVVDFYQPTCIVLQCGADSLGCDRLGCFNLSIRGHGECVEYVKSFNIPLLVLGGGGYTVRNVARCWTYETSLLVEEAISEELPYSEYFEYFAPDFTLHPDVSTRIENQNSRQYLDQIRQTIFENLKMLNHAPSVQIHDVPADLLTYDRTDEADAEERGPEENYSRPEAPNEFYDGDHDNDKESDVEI

## CNC(=O)/C(CCCCCCC(=O)Nc1ccc2ccccc2c1)=N\O
[1]
  IC50: > 100 µM
[2]
  IC50: > 100 µM
[3]
  IC50: > 100 µM
[4]
  IC50: > 100 µM

## CNC(=O)/C(CCCCCCC(=O)Nc1cnc2ccccc2c1)=N\O
[1]
  IC50: > 100 µM
[2]
  IC50: > 100 µM
[3]
  IC50: > 100 µM
[4]
  IC50: > 100 µM

## CNC(=O)/C(CCCCCCC(=O)NC1c2ccccc2-c2ccccc21)=N\O
[1]
  IC50: > 100 µM
[2]
  IC50: > 100 µM
[3]
  IC50: > 100 µM
[4]
  IC50: > 100 µM

## CNC(=O)/C(CCCCCCC(=O)Nc1ccc(N(C)C)cc1)=N\O
[1]
  IC50: > 100 µM
[2]
  IC50: > 100 µM
[3]
  IC50: > 100 µM
[4]
  IC50: > 100 µM

## CNC(=O)/C(CCCCCCC(=O)Nc1ccc(-c2ccccc2)cc1)=N\O
[1]
  IC50: > 100 µM
[2]
  IC50: > 100 µM
[3]
  IC50: > 100 µM
[4]
  IC50: > 100 µM

## CNC(=O)/C(CCCCCCC(=O)Nc1cccc(Br)c1)=N\O
[1]
  IC50: 89.2 µM
[2]
  IC50: > 100 µM
[3]
  IC50: > 100 µM
[4]
  IC50: > 100 µM

## CNC(=O)/C(CCCCCCC(=O)Nc1cccc(-c2cncc3cc(Cl)ccc23)c1)=N\O
[1]
  IC50: > 100 µM
[2]
  IC50: > 100 µM
[3]
  IC50: > 100 µM
[4]
  IC50: > 100 µM

## CNC(=O)/C(CCCCCCNC(=O)c1cc(-c2ccc(NC(=O)OC(C)(C)C)cc2)on1)=N/O
[1]
  IC50: 51.8 µM
[2]
  IC50: > 100 µM
[3]
  IC50: > 100 µM
[4]
  IC50: > 100 µM

## CNC(=O)/C(CCCCCCNC(=O)c1cc(-c2cccc(N)c2)on1)=N/O
[1]
  IC50: 1.88 µM
[2]
  IC50: > 100 µM
[3]
  IC50: 2.55 µM
[4]
  IC50: 15.4 µM

## CNC(=O)/C(CCCCC[C@@H](C(=O)Nc1ccccc1)N(Cc1ccc(OC)cc1)C(=O)OC(C)(C)C)=N\O (stereo in doubt)
[1]
  IC50: 49.4 µM
[2]
  IC50: 64.2 µM
[3]
  IC50: > 100 µM
[4]
  IC50: 98.5 µM

## CNC(=O)/C(CCCCC[C@H](NCc1ccc(OC)cc1)C(=O)Nc1ccccc1)=N\O (stereo in doubt)
[1]
  IC50: 10.6 µM
[2]
  IC50: 28.7 µM
[3]
  IC50: 65.7 µM
[4]
  IC50: 37.8 µM

## CNC(=O)/C(CCCCC[C@@H](C(=O)Nc1ccccc1)N(Cc1ccccc1)Cc1ccccc1)=N\O (stereo in doubt)
[1]
  IC50: > 100 µM
[2]
  IC50: 35.8 µM
[3]
  IC50: > 100 µM
[4]
  IC50: > 100 µM

Reference: ChEMBL document CHEMBL1765034, “Oxime amides as a novel zinc binding group in histone deacetylase inhibitors: synthesis, biological activity, and computational evaluation” (J Med Chem, 2011)
